# US20100234221A1, “USE OF TETRAMIC ACID DERIVATIVES WITH FERTILIZERS” (BAYER CROPSCIENCE AG, priority 2006, published 2010)
# Tests used:
# Aphis gossypii = assay: Use Example A: field plots of cotton sprayed against Aphis gossypii; type: in vivo; settings: cotton FM966LL field plots, I-4 44 g of a.i./ha, Dyne-amic 0.455 % (v/v), UAN 0.7 % (v/v) where added
# Description: In three replications, plots of a size of about 66 m^2 with cotton of the cultivar FM966LL are treated against Aphis gossypii. Here, the active compound I-4 (as 1500D formulation) is applied with a sprayer (High Clearance Sprayer, High Boy) at the stated application rates. The amount of water applied is about 150 l/ha. An adjuvant and/or a fertilizer (UAN=ammonium nitrate/urea solution with 28% by weight of nitrogen) are added to the spray liquor at the stated concentration. Here, it becomes evident that the composition according to the invention is equivalent to a composition comprising an adjuvant known to be efficient.
# [1] = tested on: cotton aphids (Aphis gossypii); assay: Example B-1: spray treatment of cotton plants heavily infested by cotton aphids; type: in vivo; settings: AHL or NH4NO3 12.5 g/l, RME 1 g ai/l where added
# Description: To prepare a suitable product solution, 1 part by weight of formulated goods (for example an oil suspension OD 150 prepared according to known methods) is mixed with water to give the desired concentration. The desired fertilizer or penetrant is added in a defined amount and mixed in well.
# Cotton plants (Gossypium herbaceum) which are heavily infested by the cotton aphids (Aphis gossypii) are treated by spraying with the product solution at the desired concentration.
# After the desired period of time, the kill in % is determined. Here, 100% means that all aphids have been killed; 0% means that none of the aphids have been killed.
smiles,measurement,setting,value
CCOC(=O)OC1=C(c2cc(C)ccc2C)C(=O)N[C@]12CC[C@@H](OC)CC2 [Compound I-4],Effect (% Abbott) After 2 days,Aphis gossypii; after 2 days,66.7 % Abbott
same,Effect (% Abbott) After 5 days,Aphis gossypii; after 5 days,65.8 % Abbott
same,Effect (% Abbott) After 9 days,Aphis gossypii; after 9 days,13.9 % Abbott
same,Kill in % after 7d,[1]; I-4 0.96 g ai/ha,25%
same,Kill in % after 7d,[1]; I-4 4.8 g ai/ha,90%
